# Data taken from ChEMBL document CHEMBL1201862, “PubChem BioAssay data set” (2004).
# Activity calls are given as the source filed them.
# Tests used:
# H9c2 = test: cells; assay type: functional, cell-based; settings: Rattus norvegicus, H9c2, Myocardium;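 also: confirmatory concentration-response retest of ultra-high-throughput screening hits for modulation of myocardial damage; cell death induced by hydrogen peroxide oxidative stress; compound pretreatment for 60 min then peroxide exposure for 2 h; potency is for protecting the cells against peroxide damage rather than for killing them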
# cells [1] = assay type: functional, cell-based
# cells [2] = assay type: functional, cell-based; remark: listed apart in the source
# Cytochrome P450 2D6 = Cytochrome P450 2D6 (Homo sapiens, UniProt P10635);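 also: CYP2D6 member of a cytochrome P450 panel assay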
# Chain of Cytochrome P450 2D6 (P10635 whole entry): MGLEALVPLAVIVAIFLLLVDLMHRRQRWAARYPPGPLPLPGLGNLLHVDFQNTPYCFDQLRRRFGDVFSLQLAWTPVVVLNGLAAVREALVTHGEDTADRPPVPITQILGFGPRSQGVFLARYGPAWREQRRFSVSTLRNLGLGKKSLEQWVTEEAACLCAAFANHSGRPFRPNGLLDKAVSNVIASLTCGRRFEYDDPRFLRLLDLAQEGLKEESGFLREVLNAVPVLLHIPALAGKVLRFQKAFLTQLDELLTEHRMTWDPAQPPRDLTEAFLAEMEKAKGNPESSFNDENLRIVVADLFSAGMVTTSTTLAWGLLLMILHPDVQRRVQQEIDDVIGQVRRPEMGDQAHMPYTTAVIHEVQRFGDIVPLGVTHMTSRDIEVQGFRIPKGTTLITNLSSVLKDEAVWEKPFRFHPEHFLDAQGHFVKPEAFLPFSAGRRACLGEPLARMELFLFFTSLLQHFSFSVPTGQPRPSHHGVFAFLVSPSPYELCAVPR
# [3] = biological target: T1, Replicative DNA helicase DnaB (Mycobacterium tuberculosis, UniProt P9WMR3); test: DnaB intein splicing inhibitors, dose response, biochemical, cell-free fluorescence (AID 449749); assay type: functional
# T1 sequence (P9WMR3 whole entry): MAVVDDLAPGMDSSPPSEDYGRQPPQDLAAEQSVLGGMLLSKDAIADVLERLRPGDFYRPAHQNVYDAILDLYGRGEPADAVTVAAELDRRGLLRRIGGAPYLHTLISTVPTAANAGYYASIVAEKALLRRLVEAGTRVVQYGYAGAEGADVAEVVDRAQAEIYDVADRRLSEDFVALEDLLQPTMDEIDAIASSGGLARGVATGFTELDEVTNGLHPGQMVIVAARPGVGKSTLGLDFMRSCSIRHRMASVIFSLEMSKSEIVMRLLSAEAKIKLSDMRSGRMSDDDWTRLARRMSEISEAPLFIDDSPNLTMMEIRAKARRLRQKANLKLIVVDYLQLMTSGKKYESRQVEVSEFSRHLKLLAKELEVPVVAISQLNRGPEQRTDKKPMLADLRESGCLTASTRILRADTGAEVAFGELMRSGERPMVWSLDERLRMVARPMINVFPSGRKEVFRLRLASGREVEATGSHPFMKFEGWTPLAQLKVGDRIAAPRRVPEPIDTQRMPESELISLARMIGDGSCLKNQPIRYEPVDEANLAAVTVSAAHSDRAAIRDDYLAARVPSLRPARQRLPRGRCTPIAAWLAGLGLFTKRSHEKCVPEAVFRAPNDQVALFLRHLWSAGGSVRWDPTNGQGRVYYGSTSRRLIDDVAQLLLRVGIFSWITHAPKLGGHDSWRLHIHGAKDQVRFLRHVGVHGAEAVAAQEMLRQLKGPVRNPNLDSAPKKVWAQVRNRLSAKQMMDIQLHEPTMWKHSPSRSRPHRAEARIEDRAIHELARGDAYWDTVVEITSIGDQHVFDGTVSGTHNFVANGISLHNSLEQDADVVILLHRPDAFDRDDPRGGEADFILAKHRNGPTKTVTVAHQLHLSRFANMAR
# Protein RecA = biological target: T2, Protein RecA (Mycobacterium tuberculosis, UniProt P9WHJ3); test: Fluorescence Cell-Free Homogeneous Dose Retest to Identify Inhibitors of RecA-Intein Splicing Activity. [Related pubchem assays (depositor defined):AID2097, AID2223, AID489010, AID492950]; assay type: functional
# T2 sequence (P9WHJ3 whole entry): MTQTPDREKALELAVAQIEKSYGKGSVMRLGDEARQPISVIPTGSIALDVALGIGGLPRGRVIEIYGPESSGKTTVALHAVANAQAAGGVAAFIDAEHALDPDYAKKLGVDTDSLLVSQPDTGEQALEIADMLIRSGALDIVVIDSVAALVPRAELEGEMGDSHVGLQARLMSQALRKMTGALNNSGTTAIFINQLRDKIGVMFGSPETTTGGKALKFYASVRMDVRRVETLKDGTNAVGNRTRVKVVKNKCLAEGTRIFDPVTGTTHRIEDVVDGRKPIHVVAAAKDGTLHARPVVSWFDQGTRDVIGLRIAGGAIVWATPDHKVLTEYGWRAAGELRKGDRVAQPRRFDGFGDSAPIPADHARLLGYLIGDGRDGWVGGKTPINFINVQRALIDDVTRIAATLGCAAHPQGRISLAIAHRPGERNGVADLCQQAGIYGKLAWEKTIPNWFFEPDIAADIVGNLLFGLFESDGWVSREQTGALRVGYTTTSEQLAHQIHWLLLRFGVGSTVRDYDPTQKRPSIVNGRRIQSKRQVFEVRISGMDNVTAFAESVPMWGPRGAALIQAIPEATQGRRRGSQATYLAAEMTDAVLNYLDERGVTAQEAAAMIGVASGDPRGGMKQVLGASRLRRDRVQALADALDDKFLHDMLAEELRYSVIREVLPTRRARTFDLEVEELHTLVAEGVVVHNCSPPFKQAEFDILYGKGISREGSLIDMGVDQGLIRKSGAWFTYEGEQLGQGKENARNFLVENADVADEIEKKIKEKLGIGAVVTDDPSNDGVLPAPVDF
# Cytochrome P450 3A4 = Cytochrome P450 3A4 (Homo sapiens, UniProt P08684);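 also: CYP3A4 tested as one member of a cytochrome P450 panel screen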
# Chain of Cytochrome P450 3A4 (P08684 whole entry): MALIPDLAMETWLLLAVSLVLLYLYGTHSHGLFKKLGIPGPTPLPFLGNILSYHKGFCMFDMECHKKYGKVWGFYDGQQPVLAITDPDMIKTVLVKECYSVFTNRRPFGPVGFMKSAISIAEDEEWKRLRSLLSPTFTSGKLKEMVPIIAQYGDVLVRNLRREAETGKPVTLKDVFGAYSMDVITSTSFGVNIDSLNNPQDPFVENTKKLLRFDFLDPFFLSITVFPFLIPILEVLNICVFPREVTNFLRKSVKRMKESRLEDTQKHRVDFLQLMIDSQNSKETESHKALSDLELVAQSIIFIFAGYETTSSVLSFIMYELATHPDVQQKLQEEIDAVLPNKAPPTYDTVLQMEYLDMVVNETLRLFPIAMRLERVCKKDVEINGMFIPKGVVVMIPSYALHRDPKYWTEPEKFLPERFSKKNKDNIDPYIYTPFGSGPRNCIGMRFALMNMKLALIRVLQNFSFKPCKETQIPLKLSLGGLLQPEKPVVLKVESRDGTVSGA
# [4] = system: Streptococcus sp. 'group A'; test: Streptococcus pyogenes SK(-)GAS viability under kanamycin – luminescence, BacTiterGlo, confirmation, counter-screen for streptokinase expression inhibitor project, dose response (AID 1900); assay type: functional, organism-based
# Streptococcus = test: GAS UMAA2166 growth inhibition – luminescence, BacTiterGlo, counter-screen for streptokinase expression inhibitor project, dose response (AID 1915); assay type: functional, organism-based;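 also: potency for reduction of bacterial viability or growth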
# Streptokinase A = biological target: T3, Streptokinase A (Streptococcus pyogenes serotype M1, UniProt P10520); test: viability-normalized secreted streptokinase activity reduction – plasminogen activation absorbance, OD405, dose response (AID 1914); assay type: functional, Streptococcus pyogenes M1 GAS;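 also: secreted streptokinase activity via plasminogen activation per viability signal from cell pellet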
# T3 sequence (P10520 whole entry): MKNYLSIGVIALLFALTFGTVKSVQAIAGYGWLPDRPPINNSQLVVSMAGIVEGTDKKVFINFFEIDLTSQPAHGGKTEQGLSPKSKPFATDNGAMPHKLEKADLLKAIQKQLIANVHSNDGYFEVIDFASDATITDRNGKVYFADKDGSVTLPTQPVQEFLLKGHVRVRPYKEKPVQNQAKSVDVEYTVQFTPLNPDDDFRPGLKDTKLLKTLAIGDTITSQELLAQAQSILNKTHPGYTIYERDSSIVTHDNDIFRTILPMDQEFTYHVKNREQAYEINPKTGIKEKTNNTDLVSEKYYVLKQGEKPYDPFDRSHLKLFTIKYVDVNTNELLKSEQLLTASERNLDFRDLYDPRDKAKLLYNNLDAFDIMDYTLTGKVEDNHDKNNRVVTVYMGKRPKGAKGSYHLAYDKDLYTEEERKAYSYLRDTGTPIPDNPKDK
# Vero = test: cells; assay type: functional; settings: Chlorocebus sabaeus
# [5] = biological target: T4, Corticotropin-releasing factor receptor 2/Corticotropin-releasing factor-binding protein (Homo sapiens, UniProt P24387+Q13324); test: activators of CRF receptor 2 with binding protein – uHTS hits, confirmation (AID 602473); assay type: functional; settings: read-out: EC50_Mean
# T4 sequence (Q13324 whole entry): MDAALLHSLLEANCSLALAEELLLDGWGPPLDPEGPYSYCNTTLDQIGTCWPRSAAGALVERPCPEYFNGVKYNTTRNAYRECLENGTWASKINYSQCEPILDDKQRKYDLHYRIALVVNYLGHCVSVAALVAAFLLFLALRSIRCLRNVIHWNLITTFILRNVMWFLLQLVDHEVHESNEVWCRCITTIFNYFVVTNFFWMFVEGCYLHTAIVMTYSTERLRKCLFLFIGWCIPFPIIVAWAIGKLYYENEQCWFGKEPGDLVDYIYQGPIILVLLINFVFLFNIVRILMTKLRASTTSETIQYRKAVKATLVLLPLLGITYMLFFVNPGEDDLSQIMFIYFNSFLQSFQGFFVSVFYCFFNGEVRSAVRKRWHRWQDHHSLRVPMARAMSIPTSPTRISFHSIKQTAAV
# T4 sequence (P24387 whole entry): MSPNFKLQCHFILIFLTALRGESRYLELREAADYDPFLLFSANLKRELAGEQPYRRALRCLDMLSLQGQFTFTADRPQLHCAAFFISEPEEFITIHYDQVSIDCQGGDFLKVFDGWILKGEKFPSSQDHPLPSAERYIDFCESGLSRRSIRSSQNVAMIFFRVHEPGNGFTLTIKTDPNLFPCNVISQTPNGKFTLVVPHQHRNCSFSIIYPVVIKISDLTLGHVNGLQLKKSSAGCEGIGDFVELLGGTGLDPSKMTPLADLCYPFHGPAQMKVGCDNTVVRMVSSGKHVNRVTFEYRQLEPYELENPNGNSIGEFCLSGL
# [6] = biological target: T4, Corticotropin-releasing factor receptor 2/Corticotropin-releasing factor-binding protein; test: Dose Response confirmation of uHTS hits for small molecule antagonists of the CRF-binding protein and CRF-R2 receptor complex.; assay type: functional; settings: read-out: IC50_Mean
# [7] = biological target: T5, Ubiquitin-conjugating enzyme E2 N (Homo sapiens, UniProt P61088); assay type: functional;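 also: Dose-response confirmation in a TR-FRET assay detecting UBC13-driven polyubiquitin chain formation, inhibition measured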
# T5 sequence (P61088 whole entry): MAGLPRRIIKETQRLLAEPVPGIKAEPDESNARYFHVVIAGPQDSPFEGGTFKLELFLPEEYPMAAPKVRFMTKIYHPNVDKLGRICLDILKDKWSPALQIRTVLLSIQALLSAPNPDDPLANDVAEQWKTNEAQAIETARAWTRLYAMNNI
# INS1 = test: INS-1E survival protection against cytokine death – cell-based, luminescence, retest, dose response (AID 449756); assay type: functional; settings: Rattus norvegicus;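 also: cell death triggered by IL-1 beta plus TNF-alpha plus IFN-gamma mixture; protective hits raise ATP signal compared with cytokine alone wells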
# [8] = microbe, parasite or virus in culture; assay type: functional; settings: Mycobacterium tuberculosis
smiles,measurement,setting,value
CN1CCN(Cc2nc(O)c3ccccc3n2)CC1,IC50,H9c2,24 µM (active)
O=C(CSc1nnc(Cc2cccs2)n1CCc1ccccc1)N1CCCc2ccccc21,IC50,H9c2,> 79 µM (inactive)
NC(=O)c1nsc(C(=O)N(CCc2ccccc2)C(C(=O)NC2CCCC2)c2ccco2)c1N (centres undefined),IC50,H9c2,> 79 µM (inactive)
COc1ccc(NC(=O)CNC(=O)Cc2cccc3ccccc23)c(OC)c1,EC50,cells [1],> 350 µM (not active)
same,EC50,cells [2],> 350 µM (not active)
CC(=O)N1CCC2(CCCN(c3ncccn3)C2)CC1,AC50,Cytochrome P450 2D6,31.6 µM (inconclusive)
COc1cc(SC)ccc1C(=O)Nc1ccc(C)cc1C,EC50,cells [1],5.81 µM (active)
same,EC50,cells [2],> 350 µM (not active)
Cc1ccc(-n2nc(C)c3c2OC(N)=C(C#N)C3c2ccco2)cc1 (centres undefined),AC50,[3],35.1 µM (inconclusive)
same,EC50,Protein RecA,6.22 µM (inconclusive)
same,AC50,Cytochrome P450 3A4,17.8 µM (inconclusive)
CC(C)(C)NC(=O)COC(=O)c1ccc(Cl)nc1,EC50,cells [1],> 350 µM (not active)
same,EC50,cells [2],> 350 µM (not active)
N#Cc1ccc(CN2CCC3(CC2)CCN(C(=O)c2cccc(F)c2)CC3)cc1,AC50,Cytochrome P450 2D6,12.6 µM (inconclusive)
Cc1cc(C)cc(N(CC(=O)NCCSc2ccccn2)S(=O)(=O)c2ccccc2)c1,AC50,Cytochrome P450 2D6,11.2 µM (inconclusive)
COc1ccc(NC(=S)N2CCN(C(=O)c3ccccc3)CC2)cc1,EC50,cells [1],> 350 µM (not active)
same,EC50,cells [2],> 350 µM (not active)
Cc1ccc(N=Nc2ccc(O)c(P(=O)(c3ccccc3)c3ccccc3)c2)cc1,EC50,[4],3.58 µM (active)
same,EC50,Streptococcus,110 µM (active)
same,EC50,Streptokinase A,> 150 µM (not active)
same,CC50,Vero,> 25 µM (active)
same,EC50,[5],> 53 µM (inactive)
same,IC50,[6],> 47.1 µM (inactive)
O=C(CN1C(=O)S/C(=C\C=C\c2ccccc2)C1=O)Nc1ccc(C(=O)O)cc1,AC50,[3],177 µM (active)
same,EC50,Protein RecA,> 380 µM (inactive)
CCOc1ccc(N(C(=O)c2snc(C(N)=O)c2N)C(C(=O)NC2CCCC2)C(C)C)cc1 (centres undefined),IC50,[7],> 20 µM (inactive)
CCCNC(=O)c1c(N)n(-c2cccc(OC)c2)c2nc3ccccc3nc12,AC50,INS1,36.8 µM (active)
same,IC50,H9c2,28.5 µM (active)
COc1cc2c(cc1OC)C1(Nc3c-2c(-c2ccccc2)nn3-c2ccccc2)C(=O)Nc2ccccc21 (centres undefined),CC50,[8],10.4 µM (active)
Cn1ncc(Cl)c1C(=O)Nc1nc2ccc(Cl)cc2s1,EC50,cells [1],0.85 µM (active)
same,EC50,cells [2],> 350 µM (not active)
COc1cc(C(c2c(C)n[nH]c2O)c2c(C)n[nH]c2O)cc(Cl)c1O,AC50,[3],2.6 µM (active)
same,EC50,Protein RecA,0.453 µM (active)
C=CCn1c(Cc2cccs2)nnc1SCC(=O)Nc1ccc(C(=O)OCC)cc1,CC50,[8],> 40 µM (active)
O=C(CCc1nc(O)c2ccccc2n1)N1CCN(c2ccc(F)cc2)CC1,IC50,H9c2,> 79 µM (inactive)
Cc1cc(C)cc(C(=O)Nc2ccc(NC(=O)c3cccs3)cc2)c1,IC50,H9c2,> 79 µM (inactive)
O=C(C(=O)N1CCOCC1)c1cn(Cc2ccccc2)c2ccccc12,IC50,[7],> 20 µM (inactive)
Cc1nc2ccccc2c2c1C(=O)N(C)C2=O,AC50,[3],4.71 µM (active)
same,EC50,Protein RecA,0.794 µM (active)
CC(C)C1Nc2ccc(C(=O)N3CCN(c4ccccn4)CC3)cc2NC1=O (centres undefined),IC50,H9c2,21.2 µM (active)
O=C(N/N=C/c1ccc2c(c1)OCO2)c1ccc(NC(=O)c2ccccc2Cl)cc1,IC50,H9c2,9.19 µM (active)
Oc1c(Cl)cc(Cl)cc1/C=N/c1ccc(N2CCOCC2)cc1,IC50,H9c2,> 79 µM (inactive)
CCOC(=O)C1=C(c2ccccc2)N=c2s/c(=C\c3ccco3)c(=O)n2C1c1cccs1 (centres undefined),AC50,Cytochrome P450 3A4,22.4 µM (inconclusive)
same,AC50,Cytochrome P450 2D6,15.8 µM (inconclusive)
